Patent US5716982A, “Retinoids and methods of use of same” (priority 1995, dated 1998)
Where two headings read alike, the source gives them in different places.

Legend:
[1] = system: Human promyelocytic leukemia HL-60 cells; experiment: Cell differentiation of HL-60 cells, nitroblue tetrazolium (NBT) reduction; assay type: cell-based; settings: Homo sapiens
Protocol: Human promyelocytic leukemia HL-60 cells were cultured in RPMI-1640 medium supplemented by 10% heat-inactivated calf serum and 100 U/ml of penicillin plus 100 μg/ml of streptomycin. The flasks containing cells and medium were incubated in an incubator with 5% CO2 at 37° C. Log phase cells were seeded into the medium at a concentration of 1.2×10^5to 1.4×10^5 cells per ml and cultured in flasks containing 5 ml of medium. Each group consisted of three flasks. Different concentrations of coumarin-retinoids were added. At intervals following the addition of coumarin-retinoids to the cultures, a small portion of cells was removed and live cells were counted under a light microscope using a dye-exclusionmethod with trypan blue. Cell differentiation was judged in terms of morphology and nitroblue tetrazolium (NBT) reduction.
For a determination of NBT reducing activity, a portion of the coumarin-retinoid-treated cells was removed at intervals following treatment and centrifuged. After centrifugation, 0.5 ml of 0.1% NBT (containing 100 ng TPA) was added to each tube. The contents of the test tubes were then incubated for 1 hour at 37° C. Cell smears were prepared from the cell sediment and stained using the Wright-Giemsa technique. For each smear prepared, 200 cells were isolated for examination under a light microscope with an oil immersion lens. Cells stained with blue-black granules were considered NBT-positive cells. The 50% differentiation or effective concentration (ED50 or EC50) is shown in terms of molar (M) concentration of the […] tested.
(§1) The protocols of Examples 14 and 21 were used, for the NBT and MTT assays, respectively.

[2] = system: lipid peroxidation of rat liver microsome; experiment: Fe/Cys induced lipid peroxidation of rat liver microsome (anti-oxidation); assay type: biochemical; settings: n = 3
Protocol: Lipid peroxidation was induced by adding 1 mM FeSO4 and 10 mM cysteine to the microsome fraction of rat liver with the incubations being carried out at 37° C. for 30 minutes in a reaction mixture containing 10 mM phosphate buffer (pH 7.4). The reaction was terminated by the addition of 0.3 ml of 20% trichloroacetic acid solution. Thiobarbituric acid was then added and the mixture was boiled for 10 minutes. After cooling the test tubes under running tap water, the optical density at 532 nm was measured. Lipid peroxidation in both the treated groups and the control group was expressed in nmol MDA/mg protein. The percentage inhibition indicates the anti-oxidation properties of the coumarin retinoids tested.

HL-60 cells = experiment: MTT assay in HL-60 cells; assay type: cell-based, human; settings: Homo sapiens, MTT
Protocol: (§2) Human cancer cell lines (KB, A2780, MCF-7, HL-60, A549) were used. For a monolayer culture, 0.5 ml of trypsin solution ([…]) was added to the flasks for digestion. Microtiter plates (96 well) were used for the cell culture and 200 μl of cell suspension (1200 tumor cells) were placed in each well and incubated at 37° C. for 24 hours. Following the addition of the test compound, the control and treated flasks were placed in a CO2 incubator for 5 day culture. For the MTT assay, 200 μl of MTT solution (5 mg in 10 ml of phosphate buffer) plus the medium were added and incubated for another 4 hours. Following incubation, the supernatant was discarded and 200 μl of DMSO was added to each well. With a mild agitation the OD values were determined by the MR 700 Elisa at 570 nm (reference wavelength was 450 nm). The ED50 of the compound and tumor cell survival rate [formula] as percent inhibition were calculated.
as §1

[3] = system: Ornithine decarboxylase (ODC); experiment: Croton oil induced ornithine decarboxylase (ODC) activity in mouse epidermis; assay type: in vivo; settings: single dose pretreatment, FIG. 1 (x±SD, n=3)
Protocol: ICR mice (6-8 weeks old) were pretreated with a single dose of coumarin retinoid. On the third day, the animals received a topical application of 0.2 ml of 1% croton oil in acetone. All animals were sacrificed five hours after the croton oil treatment and the epidermis was separated by a brief heat treatment at 52° C. for 30 seconds and minced in a blender. The cell suspension and broth were separated by a centrifugation at 30,000×g for 30 seconds and the supernatant was obtained. Ornithine decarboxylase (ODC) enzyme activity was determined by measuring the release of CO2 from L-(^14 C)-ornithine and expressed as nmole CO2 /30 min/mg protein and the results for coumarin retinoid I-10 and I-6 are shown in FIG. 1. […] ODC activity is a critical parameter for monitoring cancer chemoprevention or promotion.

[4] = system: Salmonella typhimurium strain TA100; experiment: Anti-mutagenicity (Ames), MMS-induced his+ revertants, TA100; assay type: cell-based; settings: MMS 0.5 μl/plate; for his+ -revertants/per plate, TA100: n = 3
Protocol: (§3) An antimutagenicity assay was conducted according to the method developed by Ames et al. using Salmonella typhimurium strains TA 102 and TA 100 and mammalian microsomal enzymes. Beta-naphthoflavone and phenobarbital-induced rat liver supernatant (9000×g S-9 fraction) was used as the enzyme source for metabolic activation. The night before the experiment, certified bacterial solution (assessed for its biological characteristics and donated by Professor Ames) was inoculated into petri dishes. The petri dishes were then incubated for 15 hours at 37° C. From each petri dish, 0.1 ml of the bacterial solution was removed and added to sterile test tubes. To these test tubes, 0.1 ml of different concentrations of coumarin retinoids and 0.5 ml of either S-9 mixed solution or phosphate buffer were then added. The final solution for each test tube was incubated in a water bath at 37° C. for 20 minutes before adding 2 ml of agar solution. After thorough mixing, the solution was transferred into petri dishes and incubated once again at 37° C. for 48 hours. After incubation, the number of colonies in each petri dish were counted. The revertant numbers of the bacteria in control and treated groups were compared and the inhibition rate was calculated.

[5] = system: Salmonella typhimurium strain TA102; experiment: Anti-mutagenicity (Ames), MMS-induced his+ revertants, TA102; assay type: cell-based; settings: MMS 0.5 μl/plate; for his+ -revertants/per plate, TA102: n = 3
Protocol: as §3

[6] = system: bone abnormalities in mouse fetus; experiment: Bone abnormalities in mouse fetus (anti-teratogenicity); assay type: in vivo
Protocol: (§4) Female mice were examined by vaginal smear the morning after being caged with male mice, and if sperm or a vaginal plug was discovered, then the mice were determined to be pregnant. The retinoids were administered at the dosage indicated starting on the seventh day of pregnancy and continued once a day for the next ten days. On the 20th day after the female mice were determined to be pregnant, they were sacrificed by cervical dislocation. Both sides of the uterus were checked and the number of living embryos, dead embryos, and absorbed embryos were counted. The living embryos were further examined for bone abnormalities.
After the embryos became transparent, they were dissected and their skeletons were checked by observation under a microscope.

chondrosarcoma in rats = experiment: Growth of transplanted chondrosarcoma in rats; assay type: in vivo, rat
Excerpt: Transplantable chondrosarcomas obtained from Dr. Trown, Hoffman--La Roche Institute of Molecular Biology and Wistar rats obtained from the Breeding Center of Experimental Animals, Chinese Academy of Medical Sciences were used. According to the routine transplantation protocol as described in Cancer Treatment Reports 60(11):1647-1653 (1976) where the small pieces of chondrosarcoma tumor were implanted subcutaneously in the right inguinal region of rats using a trocar. Tumor-bearing rats were randomized to a control group and a treated group. Each group consisted of ten rats. The compound was given orally for 12 days at the indicated dosage. Sixty days after transplantation, the rats were sacrificed and the tumor weight was determined. The inhibition rate was calculated according to the following formula: [formula]

fetus absorption in mice = experiment: Fetus absorption in mice (anti-teratogenicity); assay type: in vivo, mouse
Protocol: as §4

HCT-8 cell line = experiment: MTT assay in HCT-8 cells; assay type: cell-based; settings: Homo sapiens, HCT-8, 120 h; read-out: MTT ED50
A2780 cell line = experiment: MTT assay in A2780 cells; assay type: cell-based; settings: Homo sapiens, A2780, 120 h; read-out: MTT ED50
Protocol: as §2, §1

KB cell line = experiment: MTT assay in KB cells; assay type: cell-based; settings: Homo sapiens, 120 h, read-out: MTT ED50
Protocol: as §2, §1

BEL 7402 cell line = experiment: MTT assay in BEL 7402 cells; assay type: cell-based; settings: Homo sapiens, Bel-7402, 120 h; Bel7402; read-out: MTT ED50
[7] = Preuss-Ueberschar et al. 1984; cited from earlier work
melanoma cell growth = settings: Jing et al. 1992; cited from earlier work
[8] = NBT reduction, 50% differentiation, HL-60 (Table 2), read-out: EC50
[9] = HL-60 (Table 16), read-out: NBT

CC(=O)c1cc2ccc(OC(=O)/C=C(C)/C=C/C=C(C)/C=C/C3=C(C)CCCC3(C)C)c(C(=O)O)c2oc1=O [Compound I-5]
EC50 [1, 8]: 0.28 µM | Lipid Peroxidation ([2]; 1 μM): 2.19 ± 0.13 μM MDA/mg protein | IC50 (HL-60 cells; 120 h, HL-60 (Table 12), read-out: ED50 (the source's name)): 8.5 µM | inhibition at 10 µM (HL-60 cells; 10^-5 M, HL-60): 51.6% | inhibition at 1 µM (HL-60 cells; 10^-6 M, HL-60): 34 ± 7.1% | inhibition at 0.1 µM (HL-60 cells; 10^-7 M, HL-60): 11.5 ± 4.2%

CC(=O)c1cc2cc(Cl)c(OC(=O)/C=C(C)/C=C/C=C(C)/C=C/C3=C(C)CCCC3(C)C)cc2oc1=O [Compound I-6]
EC50 [1, 8]: 0.6 µM | inhibition of croton oil induced ODC activity [3]: significantly inhibited the ODC activity induced by croton oil | Lipid Peroxidation ([2]; 2 μM): 2.16 ± 0.18 μM MDA/mg protein | Lipid Peroxidation ([2]; 20 μM): 2.13 ± 0.19 μM MDA/mg protein | Inhibition (%), TA100 ([4]; 0.1 mg/plate): 12.8% | his+ -revertants/per plate, TA100 ([4]; 0.1 mg/plate): 971.3 ± 102.7 revertants/per plate | Inhibition (%), TA100 ([4]; 0.5 mg/plate): 15.5% | his+ -revertants/per plate, TA100 ([4]; 0.5 mg/plate): 947.3 ± 60.3 revertants/per plate | Inhibition (%), TA102 ([5]; 0.1 mg/plate): 13.8% | his+ -revertants/per plate, TA102 ([5]; 0.1 mg/plate): 1560 ± 40.0 revertants/per plate | Inhibition (%), TA102 ([5]; 0.5 mg/plate): 26.6% | his+ -revertants/per plate, TA102 ([5]; 0.5 mg/plate): 1375 ± 241.5 revertants/per plate

CC(=O)c1cc2c(OC(=O)/C=C(C)/C=C/C=C(C)/C=C/C3=C(C)CCCC3(C)C)cc(OC(=O)/C=C(C)/C=C/C=C(C)/C=C/C3=C(C)CCCC3(C)C)cc2oc1=O [Compound I-10]
EC50 [1, 8]: 0.013 µM | inhibition of croton oil induced ODC activity [3]: significantly inhibited the ODC activity induced by croton oil | Delayed Calcification, Occipital delay/fetus ([6]; 20 mg/kg): 22/66 | Delayed Calcification, Sternum delay/fetus ([6]; 20 mg/kg): 14/66 | Delayed Calcification, Occipital delay/fetus ([6]; 40 mg/kg): 15/81 | Delayed Calcification, Sternum delay/fetus ([6]; 40 mg/kg): 21/81 | Animals, final (chondrosarcoma in rats; 5 mg/kg p.o., 12 days, 10 animals initial): 10 | Inhibition rate (%) (chondrosarcoma in rats; 10 mg/kg p.o.): 9.8% | Animals, final (chondrosarcoma in rats; 10 mg/kg p.o., 12 days, 10 animals initial): 9 | Animals, final (chondrosarcoma in rats; 20 mg/kg p.o., 12 days, 10 animals initial): 9 | Inhibition rate (%) (chondrosarcoma in rats; 20 mg/kg p.o., P < 0.05): 42.2%

CC1=C(/C=C/C(C)=C/C=C/C(C)=C/C(=O)Nc2ncnc3c2ncn3C(=O)/C=C(C)/C=C/C=C(C)/C=C/C2=C(C)CCCC2(C)C)C(C)(C)CCC1 [II-A]
Implanted Number (fetus absorption in mice; 20 mg/kg, 12 pregnant mice): 141 | Absorbed Number (fetus absorption in mice; 20 mg/kg, 12 pregnant mice, 141 implanted): 10 | Implanted Number (fetus absorption in mice; 40 mg/kg, 15 pregnant mice): 181 | Absorbed Number (fetus absorption in mice; 40 mg/kg, 15 pregnant mice, 181 implanted): 17 | Cleft Palate (%) ([6]; 20 mg/kg): 0% | Delayed Calcification (%), Occipital ([6]; 20 mg/kg): 7.6% | Delayed Calcification (%), Sternum ([6]; 20 mg/kg): 9.0% | Cleft Palate (%) ([6]; 40 mg/kg): 0% | Delayed Calcification (%), Occipital ([6]; 40 mg/kg): 7.2% | Delayed Calcification (%), Sternum ([6]; 40 mg/kg): 7.2% | Inhibition rate (%) (chondrosarcoma in rats; 2 mg/kg ×10): 49.5% | Tumor Weight (chondrosarcoma in rats; 2 mg/kg ×10): 5.4 grams | Animals, final (chondrosarcoma in rats; 2 mg/kg ×10, 10 animals initial): 9 | Animals, final (chondrosarcoma in rats; 5 mg/kg ×10, 10 animals initial): 9

CC1=C(/C=C/C(C)=C/C=C/C(C)=C/C(=O)Nc2nc3c(ncn3C(=O)/C=C(C)/C=C/C=C(C)/C=C/C3=C(C)CCCC3(C)C)c(=O)[nH]2)C(C)(C)CCC1 [II-D]
EC50 [1, 9]: > 10 µM | IC50 (HCT-8 cell line): 4 µM | IC50 (A2780 cell line): > 10 µM | IC50 (KB cell line): > 10 µM | IC50 (BEL 7402 cell line): 5 µM

CC1=C(/C=C/C(C)=C/C=C/C(C)=C/C(=O)n2cnc3c(=O)[nH]c(N)nc32)C(C)(C)CCC1 [II-F]
EC50 [1, 9]: > 10 µM | IC50 (HCT-8 cell line): > 10 µM | IC50 (A2780 cell line): > 10 µM | IC50 (KB cell line): > 10 µM | IC50 (BEL 7402 cell line): > 10 µM

O=c1ccc2ccccc2o1 [coumarin]
teratogenicity [7]: not teratogenic

O=c1c(-c2ccc(O)cc2)coc2cc(O)ccc12 [diadzein]
melanoma cell growth (melanoma cell growth): inhibits melanoma cell growth
